From ChEMBL document CHEMBL1129601, “Inhibitors of acyl-CoA: cholesterol O-acyl transferase (ACAT) as hypocholesterolemic agents. CI-1011: an acyl sulfamate with unique cholesterol-lowering activity in animals fed noncholesterol-supplemented diets” (J Med Chem, 1996)

Tests used:
Format in all cases: ADME
[1] = Solution Degradation Studies measured by compound unchanged at pH 0.4=50% 1 M HCl/50% acetonitrile at 24 hours; details: 50% 1 M HCl / 50% acetonitrile solution, read-out: Unchanged
[2] = Solution Degradation Studies measured by compound unchanged at pH 0.4=50% 1 M HCl/50% acetonitrile at 0 hours; details: 50% 1 M HCl / 50% acetonitrile solution, read-out: Unchanged
[3] = Solution Degradation Studies measured by compound unchanged at pH 6.4 = 50% water / 50% acetonitrile at 4 hours; details: 50% water / 50% acetonitrile solution, read-out: Unchanged
[4] = Solution Degradation Studies measured by compound unchanged at pH 0.4=50% 1 M HCl/50% acetonitrile at 8 hours; details: 50% 1 M HCl / 50% acetonitrile solution, read-out: Unchanged
[5] = Solution Degradation Studies measured by compound unchanged at pH 0.4=50% 1 M HCl/50% acetonitrile at 4 hours; details: 50% 1 M HCl / 50% acetonitrile solution, read-out: Unchanged
[6] = Solution Degradation Studies measured by compound unchanged at pH 6.4 = 50% water / 50% acetonitrile at 8 hours; details: 50% water / 50% acetonitrile solution, read-out: Unchanged
[7] = Solution Degradation Studies measured by compound unchanged at pH 6.4 = 50% water / 50% acetonitrile at 2 hours; details: 50% water / 50% acetonitrile solution, read-out: Unchanged
[8] = Solution Degradation Studies measured by compound unchanged at pH 0.4=50% 1 M HCl/50% acetonitrile at 2 hours; details: 50% 1 M HCl / 50% acetonitrile solution, read-out: Unchanged
[9] = Solution Degradation Studies measured by compound unchanged at pH 6.4 = 50% water / 50% acetonitrile at 0 hours; details: 50% water / 50% acetonitrile solution, read-out: Unchanged
[10] = Solution Degradation Studies measured by compound unchanged at pH 6.4 = 50% water / 50% acetonitrile at 24 hours; details: 50% water / 50% acetonitrile solution, read-out: Unchanged
[11] = Solution Degradation Studies measured by compound unchanged at pH 0.4=50%1 M HCl/50% acetonitrile at 0 hours; details: 50% 1 M HCl / 50% acetonitrile solution, read-out: Unchanged
[12] = Solution Degradation Studies measured by compound unchanged at pH 0.4=50%1 M HCl/50% acetonitrile at 8 hours; details: 50% 1 M HCl / 50% acetonitrile solution, read-out: Unchanged
[13] = Solution Degradation Studies measured by compound unchanged at pH 0.4=50%1 M HCl/50% acetonitrile at 2 hours; details: 50% 1 M HCl / 50% acetonitrile solution, read-out: Unchanged
[14] = Solution Degradation Studies measured by compound unchanged at pH 0.4=50%1 M HCl/50% acetonitrile at 24 hours; details: 50% 1 M HCl / 50% acetonitrile solution, read-out: Unchanged
[15] = Solution Degradation Studies measured by compound unchanged at pH 0.4=50%1 M HCl/50% acetonitrile at 4 hours; details: 50% 1 M HCl / 50% acetonitrile solution, read-out: Unchanged

SMILES	remaining at 24 h [1] [%]	remaining at 0 h [2] [%]	remaining at 4 h [3] [%]	remaining at 8 h [4] [%]	remaining at 4 h [5] [%]	remaining at 8 h [6] [%]	remaining at 2 h [7] [%]	remaining at 2 h [8] [%]	remaining at 0 h [9] [%]	remaining at 24 h [10] [%]	remaining at 0 h [11] [%]	remaining at 8 h [12] [%]	remaining at 2 h [13] [%]	remaining at 24 h [14] [%]	remaining at 4 h [15] [%]
Cc1cccc(C)c1OC(=O)NS(=O)(=O)Oc1c(C(C)C)cccc1C(C)C	5	93	65	37	57	48	79	71	94	20	–	–	–	–	–
CC(C)c1cccc(C(C)C)c1OC(=O)NS(=O)(=O)Oc1c(C(C)C)cccc1C(C)C [listing 1 of 2 here]	–	–	100	–	–	100	100	–	100	100	100	68	92	25	83
CC(C)c1cccc(C(C)C)c1OC(=O)NS(=O)(=O)Oc1c(C(C)C)cccc1C(C)C [listing 2 of 2 here]	23	95	85	66	80	74	87	88	95	37	–	–	–	–	–
CC(C)c1cccc(C(C)C)c1OS(=O)(=O)NC(=O)Oc1c(C(C)(C)C)cccc1C(C)(C)C	97	100	99	98	99	99	100	100	100	98	–	–	–	–	–
